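Grown in 96-well plates, cells were treated for 48 hours with each compound at five concentrations. Insufficient inhibition: endpoint recorded as highest concentration tested. TGI marks complete inhibition of growth.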
Assays:
Assay in all cases: NCI-60 cell line screen, 48 h
MALME-3M melanoma = tested on: MALME-3M melanoma
A549 NSCLC = tested on: A549 NSCLC
CCRF-CEM leukemia = tested on: CCRF-CEM leukemia
UO-31 renal = tested on: UO-31 renal
SF-268 CNS = tested on: SF-268 CNS
HOP-62 NSCLC = tested on: HOP-62 NSCLC
HCT-116 colon = tested on: HCT-116 colon
UACC-62 melanoma = tested on: UACC-62 melanoma
NCI-H460 lung = tested on: NCI-H460 lung
NCI-H226 lung = tested on: NCI-H226 lung
SN12C renal = tested on: SN12C renal
MOLT-4 leukemia = tested on: MOLT-4 leukemia
SNB-19 CNS = tested on: SNB-19 CNS
MDA-MB-435 = tested on: MDA-MB-435
U251 CNS = tested on: U251 CNS
PC-3 prostate = tested on: PC-3 prostate
MDA-N = tested on: MDA-N
ACHN renal = tested on: ACHN renal
SK-MEL-28 melanoma = tested on: SK-MEL-28 melanoma
LOX IMVI melanoma = tested on: LOX IMVI melanoma
SW-620 colon = tested on: SW-620 colon
A498 renal = tested on: A498 renal
DU-145 prostate = tested on: DU-145 prostate
HCC-2998 colon = tested on: HCC-2998 colon
HCT-15 colon = tested on: HCT-15 colon
SNB-75 CNS = tested on: SNB-75 CNS
SF-539 CNS = tested on: SF-539 CNS
SF-295 CNS = tested on: SF-295 CNS
UACC-257 melanoma = tested on: UACC-257 melanoma
MCF7 breast = tested on: MCF7 breast
T-47D breast = tested on: T-47D breast
KM12 colon = tested on: KM12 colon
OVCAR-4 ovarian = tested on: OVCAR-4 ovarian
COLO 205 colon = tested on: COLO 205 colon
SK-MEL-5 melanoma = tested on: SK-MEL-5 melanoma
HS 578T breast = tested on: HS 578T breast
HL-60(TB) leukemia = tested on: HL-60(TB) leukemia
TK-10 renal = tested on: TK-10 renal
RPMI-8226 leukemia = tested on: RPMI-8226 leukemia
M14 melanoma = tested on: M14 melanoma
NCI/ADR-RES ovarian = tested on: NCI/ADR-RES ovarian
MDA-MB-231 breast = tested on: MDA-MB-231 breast
SR leukemia = tested on: SR leukemia
CAKI-1 renal = tested on: CAKI-1 renal
786-0 renal = tested on: 786-0 renal
SK-MEL-2 melanoma = tested on: SK-MEL-2 melanoma
K-562 leukemia = tested on: K-562 leukemia
IGROV1 ovarian = tested on: IGROV1 ovarian
OVCAR-8 ovarian = tested on: OVCAR-8 ovarian
HT29 colon = tested on: HT29 colon
EKVX NSCLC = tested on: EKVX NSCLC
SK-OV-3 ovarian = tested on: SK-OV-3 ovarian
NCI-H23 lung = tested on: NCI-H23 lung
OVCAR-3 ovarian = tested on: OVCAR-3 ovarian
NCI-H522 lung = tested on: NCI-H522 lung
HOP-92 NSCLC = tested on: HOP-92 NSCLC

With c1csc(-c2cc(-c3cccs3)c(-c3ccsc3)s2)c1 the TGI (MALME-3M melanoma) was greater than 100 µM, the TGI (A549 NSCLC) was greater than 100 µM and the TGI (CCRF-CEM leukemia) was greater than 100 µM. For the same molecule, the TGI (UO-31 renal) was greater than 100 µM, the TGI (SF-268 CNS) was greater than 100 µM and the TGI (HOP-62 NSCLC) was greater than 100 µM. It also gave a TGI (HCT-116 colon) greater than 100 µM, a TGI (UACC-62 melanoma) greater than 100 µM and a TGI (NCI-H460 lung) greater than 100 µM. For the same molecule, the TGI (NCI-H226 lung) was greater than 100 µM, the TGI (SN12C renal) was greater than 100 µM and the TGI (MOLT-4 leukemia) was greater than 100 µM. For the same molecule, the TGI (SNB-19 CNS) was greater than 100 µM, the TGI (MDA-MB-435) was greater than 100 µM and the TGI (U251 CNS) was greater than 100 µM. It also gave a TGI (PC-3 prostate) greater than 100 µM, a TGI (MDA-N) greater than 100 µM and a TGI (ACHN renal) greater than 100 µM. The TGI (SK-MEL-28 melanoma) was greater than 100 µM, the TGI (LOX IMVI melanoma) was greater than 100 µM and the TGI (SW-620 colon) was greater than 100 µM. It also gave a TGI (A498 renal) greater than 100 µM, a TGI (DU-145 prostate) greater than 100 µM and a TGI (HCC-2998 colon) greater than 100 µM. For the same molecule, the TGI (HCT-15 colon) was greater than 100 µM, the TGI (SNB-75 CNS) was greater than 100 µM and the TGI (SF-539 CNS) was greater than 100 µM. The TGI (SF-295 CNS) was greater than 100 µM, the TGI (UACC-257 melanoma) was greater than 100 µM and the TGI (MCF7 breast) was greater than 100 µM. For the same molecule, the TGI (T-47D breast) was greater than 100 µM, the TGI (KM12 colon) was greater than 100 µM and the TGI (OVCAR-4 ovarian) was greater than 100 µM. It also gave a TGI (COLO 205 colon) greater than 100 µM, a TGI (SK-MEL-5 melanoma) greater than 100 µM and a TGI (HS 578T breast) greater than 100 µM. For the same molecule, the TGI (HL-60(TB) leukemia) was greater than 100 µM, the TGI (TK-10 renal) was greater than 100 µM and the TGI (RPMI-8226 leukemia) was greater than 100 µM. For the same molecule, the TGI (M14 melanoma) was greater than 100 µM, the TGI (NCI/ADR-RES ovarian) was greater than 100 µM and the TGI (MDA-MB-231 breast) was greater than 100 µM. It also gave a TGI (SR leukemia) greater than 100 µM, a TGI (CAKI-1 renal) greater than 100 µM and a TGI (786-0 renal) greater than 100 µM. For the same molecule, the TGI (SK-MEL-2 melanoma) was greater than 100 µM, the TGI (K-562 leukemia) was greater than 100 µM and the TGI (IGROV1 ovarian) was greater than 100 µM. The TGI (OVCAR-8 ovarian) was greater than 100 µM, the TGI (HT29 colon) was greater than 100 µM and the TGI (EKVX NSCLC) was greater than 100 µM. The TGI (SK-OV-3 ovarian) was greater than 100 µM and the TGI (NCI-H23 lung) was greater than 100 µM.

CC(C)(C)[Si](C)(C)OCC1OC(n2cc(I)c(N)nc2=O)C(O[Si](C)(C)C(C)(C)C)C1O[Si](C)(C)C(C)(C)C (centres undefined) gave a TGI (MALME-3M melanoma) of 34.6 µM, a TGI (A549 NSCLC) of 20.8 µM and a TGI (SF-268 CNS) of 28.8 µM. For the same molecule, the TGI (HOP-62 NSCLC) was 27.6 µM, the TGI (HCT-116 colon) was 24 µM and the TGI (UACC-62 melanoma) was 23.7 µM. For the same molecule, the TGI (NCI-H460 lung) was 22 µM, the TGI (OVCAR-3 ovarian) was 24 µM and the TGI (SN12C renal) was 26.6 µM. The TGI (MOLT-4 leukemia) was 10.6 µM, the TGI (PC-3 prostate) was 25 µM and the TGI (NCI-H522 lung) was 16.5 µM. The TGI (MDA-N) was 26.9 µM, the TGI (ACHN renal) was 22 µM and the TGI (LOX IMVI melanoma) was greater than 100 µM. For the same molecule, the TGI (SW-620 colon) was greater than 100 µM, the TGI (DU-145 prostate) was 28.6 µM and the TGI (HCT-15 colon) was 39.9 µM. The TGI (SNB-75 CNS) was 28 µM, the TGI (SF-295 CNS) was 11.2 µM and the TGI (UACC-257 melanoma) was 26.7 µM. The TGI (COLO 205 colon) was 36.3 µM, the TGI (SK-MEL-5 melanoma) was 23.2 µM and the TGI (HS 578T breast) was 36.6 µM. For the same molecule, the TGI (HOP-92 NSCLC) was 37.1 µM, the TGI (M14 melanoma) was 16.9 µM and the TGI (NCI/ADR-RES ovarian) was greater than 100 µM. It also gave a TGI (MDA-MB-231 breast) of 31.7 µM, a TGI (SR leukemia) of 81.7 µM and a TGI (786-0 renal) of 9.09 µM. For the same molecule, the TGI (SK-MEL-2 melanoma) was 25.7 µM, the TGI (IGROV1 ovarian) was 20.6 µM and the TGI (OVCAR-8 ovarian) was 30.6 µM. The TGI (HT29 colon) was 20.3 µM, the TGI (EKVX NSCLC) was 38.4 µM and the TGI (SK-OV-3 ovarian) was 32.8 µM.

Reference: PubChem BioAssay (NCI)
